As usually defined, the IC50 is the point on the concentration scale where inhibition reaches its midpoint.

The text below walks through data of patent publication US12268674B2, “Mi-2β inhibitor as an immunotherapy agent” (BioVentures, LLC, priority 2021, dated 2025).

Test [1] has as its target T1, recombinant purified human Mi-2β protein (Homo sapiens, UniProt Q14839).
T1 construct: made in house
Briefly: FRET-based nucleosome repositioning assay (EpiDyne-FRET). The test is classed as biochemical. As for the experimental part:
To screen small molecules that inhibit Mi-2β activity, Homology Modeling was carried out using Structure Prediction Wizard in Prime (49, 50). Mi-2β belongs to the CHD family of chromatin remodelers, which share highly conserved ATPase/helicase domains (51, 52). The Homology Model of Mi-2β was generated using the yeast CHD1 structure (PDB code: 3MWY) as template and the sequence was obtained from Uniprot (53), which clearly depicted the interaction of Mi-2β binding pocket and ATP (FIG. 10a). Virtual screening was done with the enzyme hinge region ligands database and nucleoside mimetic database from Enamine. All ligands of ˜23,010 compounds were docked to the ATP binding site using SP docking and post-processed with Prime MM-GBSA. Ligands with a methyldihydroimidazopyridinone structure were predicted to bind best to the ATP binding region of Mi-2β. To analyze biochemically the inhibitory activity of those inhibitors, a Fluorescence Resonance Energy Transfer (FRET)-based nucleosome repositioning assay (54, 55) was designed and modified using recombinant purified human Mi-2β protein to screen an in-house library of small molecular compounds with a methyldihydroimidazopyridinone structure (FIG. 10b). Briefly, the recombinant nucleosome substrates consist of a Cy5-labeled human histone octamer (H2A T120C-Cy5) wrapped with 5′ Cy3-labeled DNA, which contains a terminal nucleosome 601 positioning sequence. The 601 sequence provides the most thermodynamically preferred locations on DNA for histone octamer (56). FRET signaling was monitored by exciting the nucleosomes at the Cy3 absorption maximum and measuring Cy5 emissions and consequently the FRET signal is at a maximum at the assembled starting point. In the presence of ATP, Mi-2β induces the histone octamer to translocate along the DNA such that the Cy3-labeled DNA 5′ end is moved away from the Cy5-labeled octamer and consequently the FRET signal is decreased (FIG. 10b). The reaction conditions for nucleosome repositioning were modified through multiple rounds of optimization and validation (FIG. 10c-d). […]

The test system of test [2] is Mi-2β target gene expression in B16F10 cells. Briefly: RT-qPCR of Mi-2β target genes in B16F10 cells treated with Z36-MP5. Type of test: cell-based, mouse. To be noted: 25 μM, 24 hours. As for the experimental part:
Z36-MP5 was chosen for further validation and experimental therapeutics in vivo. […] To investigate its cellular inhibitory activity, B16-F10 cells were treated with Z36-MP5 at concentrations ranging from 5 to 100 μM, and the activation of Mi-2β target genes measured by RT-qPCR. Z36-MP5 at 25 μM induced Mi-2β target gene expression including Cxc9, Cxcl10 and Irf1 (FIG. 11c) in B16F10 cells. We also performed the co-culture assays of B16F10 cells with activated Pmel-1 T cells to identify whether Z36-MP5 stimulation can activate T cell mediated cytotoxicity. […] In addition, the pharmacokinetic properties of Z36-MP5 in Sprague-Dawley rats with administration of intraperitoneal injection dose of 1.0 mg/kg.
(§1) The total RNA was extracted with QIAGEN RNeasy kit […] for cDNA synthesis with SuperScript II Reverse Transcriptase (Invitrogen). In total, 40 ng cDNA was used for quantitative real-time PCR amplification by TaqMan Gene Expression Master Mix (Thermo Fisher Scientific). The relative transcript levels were normalized with GAPDH expression. The data were calculated with the comparative CT method.
In general terms: Quantitative PCR measures a nucleic acid by following its amplification.

The test system of test [3] is Mi-2β function (CXCL9, CXCL10, IRF1 expression) in A375 cells. Briefly: Cell-based assay of inhibitory activity on Mi-2β function, A375. The conditions noted are these: summary of Table 3 (A375 and B16). As for the experimental part: as §1
In test [4] the target is T2, (Homo sapiens, UniProt Q9HCK8).
T2 construct: to get the native cell lysate; host or cells: A375 cell lysate
In words: ATPase profile (ATP acyl phosphate probe). The test is classed as binding. To be noted: CIID8, SEQ ID NO: 57, ATP BS.

Another test addresses T3, DDX21 (Homo sapiens, UniProt Q9NR30).
T3 construct: endogenous in cells; host or cells: A375 cell lysate
Briefly: ATPase profile (ATP acyl phosphate probe). Type of test: binding. To be noted: DDX21, SEQ ID NO: 67, ATP BS.

In a further test the target is T4, MYO1E (Homo sapiens, UniProt Q12965).
T4 construct: to get the native cell lysate; endogenous in cells; host or cells: A375
In words: ATPase profile (ATP acyl phosphate probe). The test is classed as binding. The conditions noted are these: SEQ ID NO: 128, ATP BS.

For another test, the system named is NME1, NME2. Briefly: ATPase profile (ATP acyl phosphate probe). The test is classed as binding. The conditions noted are these: NME1, NME2, SEQ ID NO: 133, ATP BS.
In a further test the target is T5, PSMC3 (Homo sapiens, UniProt P17980).
T5 construct: to get the native cell lysate; endogenous in cells; host or cells: A375 cell lysate
Briefly: ATPase profile (ATP acyl phosphate probe). The test is classed as binding. The conditions noted are these: PSMC3, SEQ ID NO: 175, ATP BS.

The target of a further test is T6, TTL (Homo sapiens, UniProt Q8NG68).
T6 construct: to get the native cell lysate; endogenous in cells; host or cells: A375 cell lysate
In words: ATPase profile (ATP acyl phosphate probe). Type of test: binding.

T6 sequence (Q8NG68 whole entry): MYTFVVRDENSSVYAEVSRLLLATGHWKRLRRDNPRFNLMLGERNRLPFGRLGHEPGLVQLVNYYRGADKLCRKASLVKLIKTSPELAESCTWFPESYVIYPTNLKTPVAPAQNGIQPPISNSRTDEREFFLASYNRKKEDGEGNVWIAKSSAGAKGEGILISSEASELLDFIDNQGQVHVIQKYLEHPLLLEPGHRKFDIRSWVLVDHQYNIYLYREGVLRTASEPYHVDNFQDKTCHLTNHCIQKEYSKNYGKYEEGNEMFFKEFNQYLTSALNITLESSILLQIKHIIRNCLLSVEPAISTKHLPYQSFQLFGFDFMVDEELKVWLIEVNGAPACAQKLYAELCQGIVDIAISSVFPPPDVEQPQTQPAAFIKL
T1 sequence (Q14839 whole entry): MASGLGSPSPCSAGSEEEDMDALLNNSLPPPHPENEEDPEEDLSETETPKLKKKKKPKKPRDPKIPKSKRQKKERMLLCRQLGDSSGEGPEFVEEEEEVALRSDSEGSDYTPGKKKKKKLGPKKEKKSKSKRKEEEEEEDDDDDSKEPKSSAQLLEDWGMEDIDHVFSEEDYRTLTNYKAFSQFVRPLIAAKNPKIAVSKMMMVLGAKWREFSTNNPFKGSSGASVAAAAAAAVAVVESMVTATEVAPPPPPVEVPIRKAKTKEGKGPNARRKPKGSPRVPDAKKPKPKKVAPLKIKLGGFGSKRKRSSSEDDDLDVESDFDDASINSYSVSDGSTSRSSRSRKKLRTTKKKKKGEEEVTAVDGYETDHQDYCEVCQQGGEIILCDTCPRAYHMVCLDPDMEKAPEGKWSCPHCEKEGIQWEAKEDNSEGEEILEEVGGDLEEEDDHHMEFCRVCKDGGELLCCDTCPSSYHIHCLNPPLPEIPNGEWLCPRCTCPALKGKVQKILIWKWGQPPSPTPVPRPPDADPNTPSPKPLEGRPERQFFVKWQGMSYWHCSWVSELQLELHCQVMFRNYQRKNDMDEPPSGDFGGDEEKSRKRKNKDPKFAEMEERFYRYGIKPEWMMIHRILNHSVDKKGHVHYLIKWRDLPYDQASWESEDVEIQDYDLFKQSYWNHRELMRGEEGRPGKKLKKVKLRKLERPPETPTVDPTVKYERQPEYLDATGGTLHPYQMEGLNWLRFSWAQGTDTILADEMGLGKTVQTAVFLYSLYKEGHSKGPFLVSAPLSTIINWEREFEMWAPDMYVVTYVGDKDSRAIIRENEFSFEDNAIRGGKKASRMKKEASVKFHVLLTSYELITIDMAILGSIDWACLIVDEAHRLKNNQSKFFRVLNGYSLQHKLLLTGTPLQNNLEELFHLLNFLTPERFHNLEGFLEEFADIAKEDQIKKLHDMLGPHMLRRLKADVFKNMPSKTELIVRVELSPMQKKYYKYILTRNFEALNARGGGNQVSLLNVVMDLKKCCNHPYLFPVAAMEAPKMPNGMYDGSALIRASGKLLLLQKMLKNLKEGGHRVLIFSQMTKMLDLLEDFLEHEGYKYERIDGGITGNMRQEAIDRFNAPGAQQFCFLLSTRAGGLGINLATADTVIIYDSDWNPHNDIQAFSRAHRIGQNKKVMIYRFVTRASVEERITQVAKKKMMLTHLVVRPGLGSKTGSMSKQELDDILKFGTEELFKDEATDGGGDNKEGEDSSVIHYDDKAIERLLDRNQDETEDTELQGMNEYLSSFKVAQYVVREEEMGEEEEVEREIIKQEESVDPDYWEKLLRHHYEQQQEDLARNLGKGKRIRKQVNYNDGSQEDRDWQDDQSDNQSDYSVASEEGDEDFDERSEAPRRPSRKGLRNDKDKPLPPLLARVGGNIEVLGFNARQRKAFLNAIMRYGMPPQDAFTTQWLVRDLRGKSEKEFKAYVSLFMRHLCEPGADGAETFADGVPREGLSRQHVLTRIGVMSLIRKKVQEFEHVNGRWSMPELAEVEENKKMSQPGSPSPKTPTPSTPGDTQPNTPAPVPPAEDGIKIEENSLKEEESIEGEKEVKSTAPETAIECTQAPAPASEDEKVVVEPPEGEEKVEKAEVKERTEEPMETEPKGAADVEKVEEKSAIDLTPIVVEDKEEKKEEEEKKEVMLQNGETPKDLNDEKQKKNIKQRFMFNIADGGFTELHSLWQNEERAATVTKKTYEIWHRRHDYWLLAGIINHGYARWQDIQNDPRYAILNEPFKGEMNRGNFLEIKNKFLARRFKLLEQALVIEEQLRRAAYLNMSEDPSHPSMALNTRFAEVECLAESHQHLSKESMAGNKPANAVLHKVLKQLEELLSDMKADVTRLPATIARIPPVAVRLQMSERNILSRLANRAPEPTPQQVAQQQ
T2 sequence (Q9HCK8 whole entry): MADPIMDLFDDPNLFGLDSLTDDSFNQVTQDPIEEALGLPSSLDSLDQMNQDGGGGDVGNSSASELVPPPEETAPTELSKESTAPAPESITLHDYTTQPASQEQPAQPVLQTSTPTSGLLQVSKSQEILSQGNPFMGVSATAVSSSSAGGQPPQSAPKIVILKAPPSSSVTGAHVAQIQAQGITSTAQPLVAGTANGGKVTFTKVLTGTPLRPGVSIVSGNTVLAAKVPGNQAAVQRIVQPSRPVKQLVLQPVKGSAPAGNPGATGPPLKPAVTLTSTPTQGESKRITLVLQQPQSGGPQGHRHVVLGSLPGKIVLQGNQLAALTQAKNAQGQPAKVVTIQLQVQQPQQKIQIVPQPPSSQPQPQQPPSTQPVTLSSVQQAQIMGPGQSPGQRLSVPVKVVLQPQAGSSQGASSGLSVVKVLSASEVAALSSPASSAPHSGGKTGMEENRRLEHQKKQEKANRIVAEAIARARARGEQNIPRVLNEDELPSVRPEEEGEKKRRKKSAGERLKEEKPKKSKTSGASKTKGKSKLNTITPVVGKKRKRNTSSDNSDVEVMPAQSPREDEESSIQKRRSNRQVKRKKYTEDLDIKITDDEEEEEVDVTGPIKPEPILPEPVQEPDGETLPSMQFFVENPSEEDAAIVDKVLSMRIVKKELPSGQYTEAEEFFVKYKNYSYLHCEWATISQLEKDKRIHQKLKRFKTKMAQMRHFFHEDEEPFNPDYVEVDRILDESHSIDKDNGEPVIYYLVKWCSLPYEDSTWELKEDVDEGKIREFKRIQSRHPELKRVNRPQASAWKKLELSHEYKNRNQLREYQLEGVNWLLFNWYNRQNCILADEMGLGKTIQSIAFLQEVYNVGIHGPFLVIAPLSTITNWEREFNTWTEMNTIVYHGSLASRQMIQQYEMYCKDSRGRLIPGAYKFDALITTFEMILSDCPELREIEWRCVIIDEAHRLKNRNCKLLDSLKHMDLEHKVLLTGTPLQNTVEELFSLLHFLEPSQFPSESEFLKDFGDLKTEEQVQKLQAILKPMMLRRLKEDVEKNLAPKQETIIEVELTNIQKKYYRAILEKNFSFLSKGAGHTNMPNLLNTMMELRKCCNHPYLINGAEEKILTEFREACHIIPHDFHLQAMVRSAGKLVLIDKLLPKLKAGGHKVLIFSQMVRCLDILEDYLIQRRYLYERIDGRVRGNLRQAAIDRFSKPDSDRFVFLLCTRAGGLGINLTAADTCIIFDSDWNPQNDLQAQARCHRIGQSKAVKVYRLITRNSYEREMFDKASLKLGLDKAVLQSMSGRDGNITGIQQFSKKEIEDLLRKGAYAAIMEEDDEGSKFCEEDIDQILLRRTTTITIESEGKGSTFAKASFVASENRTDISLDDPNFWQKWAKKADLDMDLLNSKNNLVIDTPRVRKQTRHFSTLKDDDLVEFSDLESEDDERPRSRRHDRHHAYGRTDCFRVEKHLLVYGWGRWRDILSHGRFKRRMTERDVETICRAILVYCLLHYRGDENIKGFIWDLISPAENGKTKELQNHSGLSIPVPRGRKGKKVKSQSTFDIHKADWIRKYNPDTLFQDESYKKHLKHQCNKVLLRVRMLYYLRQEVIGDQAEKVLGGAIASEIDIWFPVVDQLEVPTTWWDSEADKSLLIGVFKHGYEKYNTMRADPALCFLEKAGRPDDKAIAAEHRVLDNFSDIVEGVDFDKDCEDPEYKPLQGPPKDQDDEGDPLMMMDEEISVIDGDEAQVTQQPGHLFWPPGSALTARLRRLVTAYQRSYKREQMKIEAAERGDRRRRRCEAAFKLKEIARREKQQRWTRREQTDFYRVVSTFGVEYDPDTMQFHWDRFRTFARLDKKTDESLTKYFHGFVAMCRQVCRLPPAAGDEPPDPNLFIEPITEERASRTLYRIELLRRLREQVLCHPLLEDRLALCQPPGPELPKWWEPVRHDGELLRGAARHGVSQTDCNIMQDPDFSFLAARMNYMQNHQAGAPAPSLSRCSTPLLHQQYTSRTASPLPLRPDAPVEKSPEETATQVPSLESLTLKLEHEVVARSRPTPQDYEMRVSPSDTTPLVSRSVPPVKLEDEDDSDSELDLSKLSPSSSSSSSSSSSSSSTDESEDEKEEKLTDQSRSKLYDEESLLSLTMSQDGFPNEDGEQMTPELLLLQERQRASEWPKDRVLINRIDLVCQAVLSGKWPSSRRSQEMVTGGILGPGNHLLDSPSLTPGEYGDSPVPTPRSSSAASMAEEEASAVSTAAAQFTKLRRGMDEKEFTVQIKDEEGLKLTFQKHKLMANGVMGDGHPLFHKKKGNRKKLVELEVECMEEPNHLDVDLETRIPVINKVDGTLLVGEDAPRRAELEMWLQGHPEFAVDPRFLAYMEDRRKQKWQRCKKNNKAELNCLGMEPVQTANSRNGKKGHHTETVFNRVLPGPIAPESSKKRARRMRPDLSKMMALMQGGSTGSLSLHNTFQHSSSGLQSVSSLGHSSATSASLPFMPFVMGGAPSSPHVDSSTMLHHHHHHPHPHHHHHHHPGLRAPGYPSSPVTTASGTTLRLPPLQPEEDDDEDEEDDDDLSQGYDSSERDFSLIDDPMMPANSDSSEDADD

Consider `Cn1c(=O)[nH]c2ccc(-c3cccc(C(=O)NC4CCn5ccnc5C4)c3)cc21` (centres unmarked) [Z36-MP5, 3-(3-methyl-2-oxo-2,3-dihydro-1H-benzo[d]imidazol-5-yl)-N-(5,6,7,8-tetrahydroimidazo[1,2-a]pyridin-7-yl)benzamide], for which, in test [1] (FRET-based nucleosome repositioning assay, read-out: IC50 against Mi-2β), the half-maximal inhibitory concentration (IC50) is 82 ± 13 nM. For the same molecule, in test [1] (ratio of IC50 against Mi-2β), the “fold more potent than the original compound Z36” value is recorded as around 85 fold. Also, the “Mi-2β target gene expression including Cxc9, Cxcl10 and Irf1” value in test [2] is on record as “induced”. In addition, the “inhibitory activity on Mi-2β function (enhanced expression of IFN-γ-responsive genes)” value in test [3] is “most effective compound”. The “Inhibition (%) by 1 μM Z36-MP5” value is given as −44.26% in test [4]; 3.05% on DDX21; 4.66% at MYO1E; −1.52% with NME1, NME2; 5.71% at PSMC3; 10.59% at TTL (SEQ ID NO: 213, ATP BS). In addition, the “Inhibition (%) by 1 μM Z36-MP5” value at TTL (SEQ ID NO: 214, ATP BS) is recorded as −14.46%.
